Results taken from ChEMBL document CHEMBL3885861, “Open TG-GATES”.

Species: Rattus norvegicus
Experiment: Open TG-GATES - Regimen: Single
Type: toxicity, organism-based, Sprague-Dawley
Parameters: regimen Single, gender Male, age 6 weeks
Details: in vivo, po, route gavage; for gamma-GTP / ALT / AST / BUN / CRE / DBIL / GLC / IP / K / PL / RALB / TBIL / TC / TG / TP / ALP: tissue Plasma; for Bas / Eos / Fbg / Ht / MCHC / Mono / RBC / Ret: tissue Blood; for KIDNEY_L / KIDNEY_R / KIDNEY_TOTAL: tissue Kidney; for LIVER: tissue Liver
[1] = 1000 mg/kg, 3 h, dose level High
[2] = 1000 mg/kg, 6 h, dose level High
[3] = 1000 mg/kg, 9 h, dose level High
[4] = 1000 mg/kg, 24 h, dose level High

Work on `CC(C)OC(=O)C(C)(C)Oc1ccc(C(=O)c2ccc(Cl)cc2)cc1` [FENOFIBRATE] yielded a gamma-GTP (100 mg/kg, 24 h, dose level Middle) of 1 IU/L, a Bas [1] of 0.2% and an Eos [1] of 0.6%. It also gave a Fbg [1] of 271.2 mg/dL, a Ht [1] of 40.6% and an MCHC [1] of 32.5%. It also gave a Mono [1] of 3.4%, an RBC [1] of 616.6 x10_4/ul and a Ret [1] of 10.6%. It also gave a KIDNEY_L [1] of 0.8 g, a KIDNEY_R [1] of 0.8 g and a KIDNEY_TOTAL [1] of 1.6 g. It also gave an LIVER [1] of 7.4 g, an ALT [1] of 43.2 IU/L and an AST [1] of 76.6 IU/L. It also gave a BUN [1] of 8.2 mg/dL, a CRE [1] of 0.2 mg/dL and a DBIL [1] of 0.018 mg/dL. It also gave a GLC [1] of 173.6 mg/dL, an IP [1] of 9.3 mg/dL and a K [1] of 4.3 meq/L. The PL [1] was 123.2 mg/dL, the RALB [1] was 2.5 g/dL and the TBIL [1] was 0.062 mg/dL. It also gave a TC [1] of 64.8 mg/dL, a TG [1] of 28 mg/dL and a TP [1] of 5.3 g/dL. The gamma-GTP [1] was 1.6 IU/L, the Bas [2] was 0% and the Eos [2] was 0.6%. It also gave a Fbg [2] of 253.6 mg/dL, a Ht [2] of 39.6% and an MCHC [2] of 32.5%. It also gave a Mono [2] of 2.4%, an RBC [2] of 609.8 x10_4/ul and a Ret [2] of 10%. It also gave a KIDNEY_L [2] of 0.8 g, a KIDNEY_R [2] of 0.8 g and a KIDNEY_TOTAL [2] of 1.6 g. For the same compound, the LIVER [2] was 7.4 g, the ALP [2] was 1256 IU/L and the ALT [2] was 43.4 IU/L. The AST [2] was 75.4 IU/L, the BUN [2] was 7 mg/dL and the CRE [2] was 0.2 mg/dL. It also gave a DBIL [2] of 0.02 mg/dL, a GLC [2] of 170.4 mg/dL and an IP [2] of 9 mg/dL. It also gave a K [2] of 4.2 meq/L, a PL [2] of 116.8 mg/dL and an RALB [2] of 2.5 g/dL. For the same compound, the TBIL [2] was 0.058 mg/dL, the TC [2] was 60 mg/dL and the TG [2] was 28.6 mg/dL. It also gave a TP [2] of 5.2 g/dL, a gamma-GTP [2] of 1.2 IU/L and a Bas [3] of 0%. For the same compound, the Eos [3] was 0.6%, the Fbg [3] was 283.6 mg/dL and the Ht [3] was 39.8%. It also gave an MCHC [3] of 32.3%, a Mono [3] of 1.8% and an RBC [3] of 609.2 x10_4/ul. For the same compound, the Ret [3] was 8.8%, the KIDNEY_L [3] was 0.8 g and the KIDNEY_R [3] was 0.8 g. For the same compound, the KIDNEY_TOTAL [3] was 1.6 g, the LIVER [3] was 6.9 g and the ALP [3] was 1470.4 IU/L. For the same compound, the ALT [3] was 48.4 IU/L, the AST [3] was 90.4 IU/L and the BUN [3] was 8 mg/dL. The CRE [3] was 0.2 mg/dL, the DBIL [3] was 0.014 mg/dL and the GLC [3] was 152.2 mg/dL. For the same compound, the IP [3] was 8.5 mg/dL, the K [3] was 3.8 meq/L and the PL [3] was 119 mg/dL. The RALB [3] was 2.5 g/dL, the TBIL [3] was 0.048 mg/dL and the TC [3] was 62.4 mg/dL. For the same compound, the TG [3] was 32.2 mg/dL, the TP [3] was 5.3 g/dL and the gamma-GTP [3] was 1 IU/L. The Bas [4] was 0%, the Eos [4] was 1% and the Fbg [4] was 259 mg/dL. For the same compound, the Ht [4] was 39.4%, the MCHC [4] was 32.5% and the Mono [4] was 3.6%. The RBC [4] was 603.8 x10_4/ul, the Ret [4] was 9.1% and the KIDNEY_L [4] was 0.8 g. For the same compound, the KIDNEY_R [4] was 0.8 g, the KIDNEY_TOTAL [4] was 1.7 g and the LIVER [4] was 9.6 g. The ALT [4] was 53 IU/L, the AST [4] was 84.4 IU/L and the BUN [4] was 13.6 mg/dL. It also gave a CRE [4] of 0.2 mg/dL, a DBIL [4] of 0.014 mg/dL and a GLC [4] of 172.2 mg/dL. For the same compound, the IP [4] was 8.7 mg/dL, the K [4] was 4.3 meq/L and the PL [4] was 112.4 mg/dL. It also gave an RALB [4] of 2.5 g/dL, a TBIL [4] of 0.048 mg/dL and a TC [4] of 57.2 mg/dL. For the same compound, the TG [4] was 31.6 mg/dL, the TP [4] was 5.3 g/dL and the gamma-GTP [4] was 1 IU/L.
